From paper PMC11096368, “Transcriptomic signature, bioactivity and safety of a non-hepatotoxic analgesic generating AM404 in the midbrain PAG region” (Scientific Reports, 2024)
Entries after “also recorded” stand apart in the source; their conditions may differ. Read-outs that look alike come from different tables or passages of the source.

Tests used:
Type in all cases: in vivo
[1] = LC–MS/MS identification of serum NAPQI; settings: 600 mg/kg, CD-1 mice
Protocol: […] (NAPQI) was extracted from the serum by adding 3 volumes of ethyl-acetate to 1 volume of serum and storing them on ice for 30 min, followed by centrifugation at 3000g for 30 min. Afterward, the supernatant was transferred into mass spectrometry vials and dried under N2 gas. The serum was then washed with another 3 volumes of ethyl-acetate, and the supernatant was added back to the same mass spectrometry vial, followed by evaporation under a stream of N2 gas. The sample was re-suspended with 50 µl of 1:1 MeOH:H2O for LC–MS/MS experimentation. The mass spectrophotometer was operated in multiple reaction monitoring (MRM) mode using positive ion electrospray. NAPQI was detected by monitoring the m/z transition 150.3 → 108.1. Pure NAPQI analytical standard (10 ng/mL) obtained from Cayman Chemical (Ann Arbor, MI) was used to characterize the full fragmentation pattern of NAPQI and determine the likely fragments.

CD1 or C57BL/6 mice = experiment: Cold stimulation tail flick somatic pain assay; settings: for ED50: Mus musculus, equimolar dosing; for Analgesia in cold tail-flick assay: high dose (100 mg/kg), all experimental cohorts
Text: The investigators were blinded till the completion of all the experiments. To ensure objectivity, investigators were blinded for the acetic acid and tail flick experiments. In the CFA/von Frey and Hargreaves assays, one investigator did the drug pre-treatments, and another investigator at another location who was not aware of the treatments conducted the behavioral testing. Moreover, these studies used the eVF device that electronically registers the grams of force necessary to elicit paw withdrawal, eliminating bias that confounded older versions of this test in which an investigator used a series of individual von Frey microfilaments to determine paw withdrawal thresholds. Six separate experimenters were involved in the data acquisition for behavioral testing, and another separate investigator performed all the statistical analyses using GraphPad Prism Version 9.1.2. Statistical significance was determined by p < 0.05; one-way ANOVA followed by Sidak’s multiple comparisons post hoc test. Mixed-gender experiments were powered to test for gender effects, and different ages of rodents were also included for the experiments – young (2 months) and aged (20 months) to tease out whether there are any effects of age-related changes in nociceptive sensitivity under naïve, and inflammatory pre-clinical rodent pain models. For the aged rats and mice, we could only obtain male Sprague–Dawley rats and male C57BL/6 mice of 20 months old from all commercial animal vendors and from the National Institute of Aging (NIA). So, only these rodents were used for the older animal experimental cohort. Old female rats and mice were not available at the time when these experiments were conducted. For ED50 calculation, dose–response curves were calculated with regression analysis and log transformation using GraphPad Prism 9.1.2.
Half of the tail was immersed in ice-cold water maintained at 4 °C. For the tail-flick assays, we used n = 70 aged male mice, n = 90 young male mice, and n = 120 young female mice. Based on the availability of mice at the time of the experiments, different numbers of animals were assigned to different cohorts of experimental animals. Tail flick assay experiments were conducted on an open bench in a dedicated room at the LSUHSC New Orleans Neuroscience Center of Excellence vivarium. Mice were allowed to acclimate to the laboratory environment for 1 h prior to testing. To restrain the mice for the test, disposable plastic 50 mL screw-capped conical centrifuge tubes were cut at the tip to create a 0.5 cm opening to allow the mice to breathe freely. Another 0.5 cm opening was cut into the cap to allow access of the tail to the water bath. A 500 mL glass beaker was filled with 450 mL of ice-cold distilled water maintained at 4 °C with the addition of ice and determined with a glass thermometer. Mice were held over the opening of the water bath, and their tails submerged approximately halfway into the water. The nociceptive threshold was taken as the latency until the mice flicked their tail tip or removed the tail. The time from immersion to the attempted tail tip removal was measured to 1/10th of a sec with a digital laboratory timer. To minimize damage to the tail, a 60-s cut-off was utilized. […] Injections were at doses of 32 mg/kg and 100 mg/kg. 30 min post-drug administration tail-flick/withdrawal latency was measured.

CD-1 male mice = experiment: LPS fever induction antipyresis assay; settings: 75 mg/kg PO, LPS 100 μg/kg ip, n = 20
Protocol: Antipyresis experiments were carried out with n = 60 CD-1 male mice weighing between 45 and 50 g. All mice were kept in a 12-h day/12-h night cycle with free access to food and water ad libitum. After habituating and acclimating the mice for a week, each mouse was briefly anesthetized for 1 min with 1% isoflurane and implanted subcutaneously a transmitter probe that records core body temperature – Implantable Programmable Temperature Transponder (IPTT-300) by Bio Medic Data Systems (BMDS), DE, USA. The mice were allowed to recover for at least one week from the surgery before any recordings were made and observed in their home cages prior to pyrogen challenge for inducing fever. Temperatures were recorded using the BMDS DAS-8027-IUS data reading system.
All mice were fasted overnight (15 h) with free access to water ad libitum prior to the pyrogen challenge. For the induction of fever, LPS from E. coli (100 μg/kg, 0111:B4) (MilliporeSigma, Billerica, MA, USA) was used. Mice received either LPS in 0.9% saline (sterile) (vehicle) or just 0.9% saline as an intraperitoneal (ip) injection.
All drugs and vehicle (10% DMSO: 10% labrasol :80% PEG400) were administered by oral gavage, PO dosing. Each dosing volume was ~ 0.3–0.4 mL per mouse. […] We chose this dose to record antipyretic effect in a low dose that doesn’t cause hypothermia in mice.

[2] = read-out: ED50 Tail Flick Assay (Mice), Aged (Male)
[3] = read-out: ED50 Tail Flick Assay (Mice), Young (Female)
[4] = read-out: ED50 Tail Flick Assay (Mice), Young (Male)

Compound	Formation of the hepatotoxic metabolite NAPQI (serum) [1]	ED50 (CD1 or C57BL/6 mice; [2]) [µmol/kg]	ED50 (CD1 or C57BL/6 mice; [3]) [µmol/kg]	ED50 (CD1 or C57BL/6 mice; [4]) [µmol/kg]	Analgesia in cold tail-flick assay (CD1 or C57BL/6 mice)	Antipyresis, LPS fever (CD-1 male mice)
CCN(CC)C(=O)c1ccccc1S(=O)(=O)NCC(=O)Nc1ccc(O)cc1 [SRP-001, N,N-diethyl-2-[[2-(4-hydroxyanilino)-2-oxo-ethyl]sulfamoyl]benzamide]	lack of formation of the toxic quinonimine metabolite NAPQI; also recorded: does not produce the hepatotoxic metabolite; also recorded: lack of production of NAPQI	81.6	44.9	60	significant analgesia	comparable antipyresis
CC(=O)Nc1ccc(O)cc1 [ApAP, acetaminophen, reference compound]	a NAPQI peak is seen; also recorded: significantly enhanced; also recorded: NAPQI peak appears	281	70.3	71.8	significant analgesia	comparable antipyresis
